In article PMC10143825, “ABT-333 (Dasabuvir) Increases Action Potential Duration and Provokes Early Afterdepolarizations in Canine Left Ventricular Cells via Inhibition of IKr” (Pharmaceuticals, 2023) one finds IC50 data, which are given here for 1 compound.

The target in this assay is T1, hERG channel (Homo sapiens, UniProt Q12809).
T1 construct: gene KCNH2
Put plainly: cell-based.

A word on the IC50: it is the point on the concentration scale where inhibition reaches its midpoint. The low end stands for greater potency, the high end for weaker potency.

T1 sequence (Q12809 whole entry): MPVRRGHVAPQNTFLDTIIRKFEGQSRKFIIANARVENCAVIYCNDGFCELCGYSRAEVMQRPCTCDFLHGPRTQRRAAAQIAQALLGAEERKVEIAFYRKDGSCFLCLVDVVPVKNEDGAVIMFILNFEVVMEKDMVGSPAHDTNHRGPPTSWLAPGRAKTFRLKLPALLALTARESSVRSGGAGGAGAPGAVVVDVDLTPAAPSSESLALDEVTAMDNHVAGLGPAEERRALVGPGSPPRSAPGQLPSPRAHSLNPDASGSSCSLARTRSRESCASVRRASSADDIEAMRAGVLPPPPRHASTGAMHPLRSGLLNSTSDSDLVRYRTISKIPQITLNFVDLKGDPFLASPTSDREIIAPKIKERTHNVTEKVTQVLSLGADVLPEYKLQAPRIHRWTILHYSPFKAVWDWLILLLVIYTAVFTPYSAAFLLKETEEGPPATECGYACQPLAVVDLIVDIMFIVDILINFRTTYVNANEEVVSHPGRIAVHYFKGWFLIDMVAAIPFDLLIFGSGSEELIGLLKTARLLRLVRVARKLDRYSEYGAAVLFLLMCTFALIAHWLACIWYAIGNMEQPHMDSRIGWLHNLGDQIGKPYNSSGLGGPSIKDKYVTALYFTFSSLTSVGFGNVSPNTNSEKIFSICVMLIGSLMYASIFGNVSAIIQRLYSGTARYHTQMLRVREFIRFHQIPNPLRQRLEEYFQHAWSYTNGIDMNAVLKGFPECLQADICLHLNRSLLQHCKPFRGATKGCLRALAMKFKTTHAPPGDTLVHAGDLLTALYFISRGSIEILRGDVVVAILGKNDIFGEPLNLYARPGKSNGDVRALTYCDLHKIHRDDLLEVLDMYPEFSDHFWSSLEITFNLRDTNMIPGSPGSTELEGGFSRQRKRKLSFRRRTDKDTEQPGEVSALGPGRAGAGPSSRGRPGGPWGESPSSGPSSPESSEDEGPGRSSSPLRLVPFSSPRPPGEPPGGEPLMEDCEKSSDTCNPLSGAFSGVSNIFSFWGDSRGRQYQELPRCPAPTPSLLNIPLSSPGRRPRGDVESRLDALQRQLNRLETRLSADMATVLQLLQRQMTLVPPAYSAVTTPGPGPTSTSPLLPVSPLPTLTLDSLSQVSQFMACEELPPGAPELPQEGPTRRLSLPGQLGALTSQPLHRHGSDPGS

In turn, `COc1c(-c2ccc3cc(NS(C)(=O)=O)ccc3c2)cc(-n2ccc(=O)[nH]c2=O)cc1C(C)(C)C` [ABT-333] returned an IC50 of 3.2 µM.
